Source: patent publication JP2014074001A, “抗精神病剤” (KONAN MEDICAL CO Ltd, priority 2012, dated 2014)

Experiments:
[1] = test system: fasting blood glucose [空腹時血糖値]; experiment: Example 1: fasting blood glucose in high-fat-diet ICR mice, olanzapine and β-glucan; format: in vivo, mouse; settings: male ICR mice, 4 weeks, 16 h fast, tail vein, olanzapine 3 mg/kg/day p.o. and/or β-glucan 5 v/v% in drinking water, mean ± SD, high-fat control 84.4±14.65, normal diet control 72.6±10.49
[2] = test system: fasting blood glucose [空腹時血糖値]; experiment: Example 2: fasting blood glucose in high-fat-diet ICR mice, clozapine and β-glucan; format: in vivo, mouse; settings: male ICR mice, 4 weeks, 16 h fast, tail vein, clozapine 5 mg/kg/day p.o. with or without β-glucan 5 v/v% in drinking water

| Compound | fasting blood glucose, mean [1] [mg/dL] | fasting blood glucose [2] [mg/dL] |
| --- | --- | --- |
| Cc1cc2c(s1)Nc1ccccc1N=C2N1CCN(C)CC1 [オランザピン] | 124.8 ± 16.44 |  |
| CN1CCN(C2=Nc3cc(Cl)ccc3Nc3ccccc32)CC1 [クロザピン] |  | 124.0 ± 8.91 |
